Reference: US20190224279A1, “PHARMACEUTICAL ASSOCIATION COMPRISING A GROWTH FACTOR RECEPTOR AGONIST CONJUGATED TO A BIOACTIVE CARRIER FOR CONVERTING A NEOPLASTIC CELL INTO A NON-NEOPLASTIC CELL AND USES THEREOF” (HISTIDE AG, priority 2015, published 2019)
No end group written: not given here.

Legend:
ERK = assay: Adhesion checkpoint activation, western blot of ERK phosphorylation (Ras/MAP kinase); assay type: cell-based, human; conditions: osteosarcoma cells on PET associations; 24 hours
Description: (§1) After 24 hours of culture, cells were permeabilized (10% SDS, 25 mM NaCl, 10 nM pepstatin and 10 nM leupeptin in distilled water and loading buffer), boiled for 10 minutes and resolved by reducing PAGE (Invitrogen). Proteins were transferred onto nitrocellulose, blocked, and labeled with HRP-conjugated antibodies (Invitrogen). Integrin αv, α5, α3, α4, β1, β, β5 and […] were blotted by treating the nitrocellulose with monoclonal anti-integrin (extracellular domain) αv, α5, α3, α4, β1, β3, β5 and β6 antibodies (Santa Cruz Biotechnology). Phosphor-Smad1/5/8 was blotted by treating the nitrocellulose with monoclonal anti-p-Smad1/5/8 (Santa Cruz Biotechnology). For all of the experiments the western blot was performed in triplicate, along with an additional blot for actin and coomassie blue staining to ensure constant protein load among samples.
(§2) Neoplastic cells (in this example osteosarcoma cells) were cultured on pharmaceutical associations comprising PET as a bioactive carrier and one of GFR-binding compounds of SEQ ID NO: 12, 19, 30 or 39. The main signaling pathways include: Ras/MAP kinase, FAK/Src kinase and PIP2 which are decreased after 24 hours as shown by western blot quantifications (FIG. 8). […] Finally, a decrease of 3-phosphoinositide-dependent protein kinase 1 (PDK1) protein expression was also was observed (FIG. 8C).

Src kinase = assay: Adhesion checkpoint activation, western blot of Src kinase phosphorylation (FAK/Src kinase); assay type: cell-based, human; conditions: osteosarcoma cells on PET associations; 24 hours
Description: as §1, §2

[1] = system: 3-phosphoinositide-dependent protein kinase 1 (PDK1); assay: Adhesion checkpoint activation, western blot of PDK1 protein expression (PIP2); assay type: cell-based, human; conditions: osteosarcoma cells on PET associations; 24 hours
Description: as §1, §2

Paxillin = Paxillin gene expression by RT-PCR; assay type: cell-based, human; conditions: osteosarcoma cells on PET associations; 24 hours
Description: (§3) After 24 hours of culture, total RNA was extracted by using the RNeasy total RNA kit (Qiagen®) according to the manufacturer's instructions. Purified total RNA was used as a template in order to make cDNA by a reverse transcription reaction (Gibco BrI®) with random primers (Invitrogen®). The cDNA was then used as a template for a real-time PCR amplification in the presence of SYBR green reagents (Bio-Rad®) by using a thermocycler (iCycler, Biorad®). Data were analyzed with the iCycler IQ™® software and compared by the ΔΔCt method. Briefly, the mean Ct value of the target gene was normalized to its averaged Ct values of the housekeeping gene (GAPDH) to give a ΔCt value, which was then normalized to a control sample to obtain a ΔΔCt value. The results were obtained from two series of experiments performed in triplicate.
(§4) Neoplastic cells (in this example osteosarcoma cells) were cultured on pharmaceutical associations comprising PET as a bioactive carrier and one of GFR-binding compounds of SEQ ID NO: 12, 19, 30 or 39. After 24 hours, the Paxillin and Vinculin gene expression decreased as shown by RT-PCR (FIG. 9).

Vinculin = Vinculin gene expression by RT-PCR; assay type: cell-based, human; conditions: osteosarcoma cells on PET associations; 24 hours
Description: as §3, §4

[2] = system: Cyclin D (arithmetic mean of Cyclin D1, Cyclin D2 and Cyclin D3); assay: Cyclin D profile by RT-PCR; assay type: cell-based, human; conditions: osteosarcoma cells on PET associations; after the first 30 min of cell culture
Description: as §3
Neoplastic cells (in this example osteosarcoma cells) were cultured on pharmaceutical associations comprising PET as a bioactive carrier and one of GFR-binding compounds of SEQ ID NO: 12, 19, 30 or 39. The Cyclin D (the arithmetic mean of Cyclin D1, Cyclin D2 and Cyclin D3) gene expression decreased after the first 30 min of cell culture as shown by RT-PCR (FIG. 10).

[3] = system: Smad1/5/8 signaling pathway; assay: Growth factor receptor activation: quantification of western blots of phospho-Smad1/5/8; assay type: cell-based; conditions: human osteosarcoma cells MG63; 400 ng/mL GFR-binding compound; Table 4
Description: as §1

[4] = system: human osteosarcoma cells, MG63; assay: Tumor cell recoding via quantification of pRB (immunofluorescence, ImageJ); assay type: cell-based
Description: The cells were first fixed for 20 min with 4% paraformaldehyde/PBS at 4° C. After fixation, the cells were permeabilized in PBS containing 1% Triton X-100 for 15 min. Protein immunofluorescent visualization was performed by first treating the cells with 1% (v/v) specific monoclonal antibodies for 1 hour at 37° C. Then the samples were incubated with Alexa Fluor® 568 or 647 (F(ab′)2 fragment of IgG(H+L)) during 30 min at room temperature. The cell nuclei were counterstained in 20 ng/mL DAPI for 10 min at room temperature.
For this type of quantification the freeware image analysis ImageJ® software was used. The raw image was first converted to an 8-bit file, and then the unsharp mask feature was used (settings 1:0.2) to remove the image background (rolling ball radius 10). After smoothing, the resulting image, which appears similar to the original photomicrograph but with minimal background, was then converted to a binary image by setting a threshold. Threshold values were determined empirically by selecting a setting, which gave the most accurate binary image for a subset of randomly selected photomicrographs. The cell area was determined by manual delineation on raw fluorescent images. Total contact area and mean contact area per cell were calculated by “analyse particules” in ImageJ®. A minimum of 50 cells per condition were analyzed.
Neoplastic cells (in this example osteosarcoma cells) were cultured on pharmaceutical associations comprising PET as a bioactive carrier and one of GFR-binding compounds of SEQ ID NO: 11 to 14, 24 to 26 and 51 to 63. A rapid (24 hours) decrease of the tumor markers was observed (FIG. 7). The adhesion checkpoint then activates the tumor suppressor proteins p53 and pRB. […]

Substance | phosphorylation at Thr202 and Tyr204 on ERK (ERK) | phosphorylation of Src kinase (Src kinase) | PDK1 protein expression [1] | Paxillin gene expression (Paxillin) | Vinculin gene expression (Vinculin) | Cyclin D gene expression [2] | p-Smad1/5/8 (%) [3] | pRB (%) ([4]; Table 4) | pRB (%) ([4]; Table 5)
SEQ ID NO: 19: GFR-binding compound covalently associated with PET as bioactive carrier; sequence only in the sequence listing (PSSAPTQLSATSMLYYDDSSNVILRKHRQHNK; also: covalently attached to PET) | absence of phosphorylation | no phosphorylation at Thr416 but phosphorylation of Tyr527 | decrease | decreased | decreased | decreased | – | – | –
RNVQCRPTQLEPLPIVYYEIVRKKPEQLSNTLE (Non-cyclic GFR-binding peptide) [SEQ ID NO: 95] | – | – | – | – | – | – | 29% | 8% | 8%
VPTELSPISILFIVGGKPKVYKQYENMVVE (Non-cyclic GFR-binding peptide) [SEQ ID NO: 90] | – | – | – | – | – | – | 36% | 17% | 17%
VPARLSPISILYIDAANNVVYKQYEDM (Non-cyclic GFR-binding peptide) [SEQ ID NO: 74] | – | – | – | – | – | – | 51% | 10% | 10%
VPTKLSPISILYIDKMGVPTYKQYEEGMSVAE (Non-cyclic GFR-binding peptide) [SEQ ID NO: 82] | – | – | – | – | – | – | 35% | 16% | 16%
VPARLSPISILYIDAANNVVYKQYEDMVKS (Non-cyclic GFR-binding peptide) [SEQ ID NO: 93] | – | – | – | – | – | – | 44% | 8% | 8%
SEQ ID NO: 12: GFR-binding compound covalently associated with PET as bioactive carrier; sequence only in the sequence listing (KVGKASSVPTKLSAISMLYLDDMGVPTLKNYQNMVVRAS; also: covalently attached to PET (bioactive carrier), site not given here) | absence of phosphorylation | no phosphorylation at Thr416 but phosphorylation of Tyr527 | decrease | decreased | decreased | decreased | – | – | –
VSQDLSAISTLYLKIVRKEPLKNYQEMVEE (Non-cyclic GFR-binding peptide) [SEQ ID NO: 98] | – | – | – | – | – | – | 39% | 9% | 9%
APTKLEPLTIVYYDDSSNVIEQLSNNMVVR (Non-cyclic GFR-binding peptide) [SEQ ID NO: 88] | – | – | – | – | – | – | 32% | 21% | 21%
APTKLEPLPMVYYEERRNVIEQLSNNMVVR (Non-cyclic GFR-binding peptide) [SEQ ID NO: 86] | – | – | – | – | – | – | 34% | 11% | 11%
VPEKMSSLSILFFDENKNVVLKVYPNMAVS (Non-cyclic GFR-binding peptide) [SEQ ID NO: 73] | – | – | – | – | – | – | 44% | 17% | 17%
VPQALSPISILFIVGRKPKVYKQYEMIVERS (Non-cyclic GFR-binding peptide) [SEQ ID NO: 89] | – | – | – | – | – | – | 41% | 18% | 18%
ASASPSSVPQDLEPLTILYYVGRTPKVEQLSNMV (Non-cyclic GFR-binding peptide) [SEQ ID NO: 65] | – | – | – | – | – | – | 38% | 18% | 18%
TQVQLEPLTLLYYDENEKVIEQLSNDMVVE (Non-cyclic GFR-binding peptide) [SEQ ID NO: 71] | – | – | – | – | – | – | 47% | 19% | 19%
VPTKLSAISTLYLDLAREEPLKNYQEMVVE (Non-cyclic GFR-binding peptide) [SEQ ID NO: 87] | – | – | – | – | – | – | 38% | 16% | 16%
SEQ ID NO: 39: GFR-binding compound covalently associated with PET as bioactive carrier; sequence only in the sequence listing (KASSVPTELSPISTLYKDENEKVVLKYHYDMVV; also: covalently attached to PET) | absence of phosphorylation | no phosphorylation at Thr416 but phosphorylation of Tyr527 | decrease | decreased | decreased | decreased | – | – | –
VPTHHSAISTLYLELAGEKPLKNYQFLQHNK (Non-cyclic GFR-binding peptide) [SEQ ID NO: 96] | – | – | – | – | – | – | 47% | 7% | 7%
TPTKMSPINMLYFNEKNNIIYGKIPGMVVD (Non-cyclic GFR-binding peptide) [SEQ ID NO: 76] | – | – | – | – | – | – | 55% | 15% | 15%
SEQ ID NO: 30: GFR-binding compound covalently associated with PET as bioactive carrier; sequence only in the sequence listing (APTKLSAISMLYYDSSNNVIEQLSN; also: covalently attached to PET) | absence of phosphorylation | no phosphorylation at Thr416 but phosphorylation of Tyr527 | decrease | decreased | decreased | decreased | – | – | –
APTQLSAISTLYLEIVRKKPLKNYQFLQHNK (Non-cyclic GFR-binding peptide) [SEQ ID NO: 77] | – | – | – | – | – | – | 52% | 14% | 14%
